Results from US10251395B2, “Substituted furano-/thienocycloalkylamino-2-pyrimidine derivatives and use thereof for controlling undesired plant growth” (Bayer CropScience Aktiengesellschaft, priority 2015, dated 2019).

How the values were obtained:
Format in all cases: in vivo
Polygonum convolvulus = experiment: Pre-emergence herbicidal effect; settings: Dosage 320 g/ha, scored visually after 3 weeks
Source text: (§1) Seeds of monocotyledonous and dicotyledonous weed plants and crop plants are laid out in wood-fiber pots in sandy loam and covered with soil. The compounds of the invention, formulated in the form of wettable powders (WP) or as emulsion concentrates (EC), are then applied to the surface of the covering soil as aqueous suspension or emulsion at a water application rate equating to 600 to 800 L/ha with addition of 0.2% wetting agent.
(§2) After the treatment, the pots are placed in a greenhouse and kept under good growth conditions for the trial plants. The damage to the test plants is scored visually after a test period of 3 weeks by comparison with untreated controls (herbicidal activity in percent (%): 100% activity=the plants have died, 0% activity=like control plants).
(§3) • ABUTH: Abutilon theophrasti ALOMY: Alopecurus myosuroides • AMARE: Amaranthus retroflexus AVEFA: Avena fatua • CYPES: Cyperus esculentus ECHCG: Echinochloa crus-galli • LOLMU: Lolium multiflorum MATIN: Matricaria inodora • PHBPU: Ipomoea purpurea POLCO: Polygonum convolvulus • SETVI: Setaria viridis STEME: Stellaria media • VERPE: Veronica persica VIOTR: Viola tricolor

Amaranthus retroflexus [1] = experiment: Pre-emergence herbicidal effect; settings: scored visually after 3 weeks
Source text: as §1, §2, §3

Stellaria media [2] = experiment: Pre-emergence herbicidal effect; settings: scored visually after 3 weeks
Source text: as §1, §2, §3

Setaria viridis = experiment: Pre-emergence herbicidal effect; settings: Dosage 320 g/ha, scored visually after 3 weeks
Source text: as §1, §2, §3

Matricaria inodora = experiment: Pre-emergence herbicidal effect; settings: scored visually after 3 weeks
Source text: as §1, §2, §3

Viola tricolor [3] = experiment: Pre-emergence herbicidal effect; settings: scored visually after 3 weeks
Source text: as §1, §2, §3

Veronica persica [4] = experiment: Pre-emergence herbicidal effect; settings: scored visually after 3 weeks
Source text: as §1, §2, §3

Viola tricolor [5] = experiment: Post-emergence herbicidal effect
Source text: (§4) • ABUTH: Abutilon theophrasti ALOMY: Alopecurus myosuroides • AMARE: Amaranthus retroflexus AVEFA: Avena fatua • CYPES: Cyperus esculentus ECHCG: Echinochloa crus-galli • LOLMU: Lolium multiflorum MATIN: Matricaria inodora • PHBPU: Ipomoea purpurea POLCO: Polygonum convolvulus • SETVI: Setaria viridis STEME: Stellaria media • VERPE: Veronica persica VIOTR: Viola tricolor Seeds of monocotyledonous and dicotyledonous weed and crop plants are laid out in sandy loam in wood-fiber pots, covered with soil and cultivated in a greenhouse under good growth conditions. 2 to 3 weeks after sowing, the test plants are treated at the one-leaf stage. The compounds of the invention, formulated in the form of wettable powders (WP) or as emulsion concentrates (EC), are then sprayed onto the green parts of the plants as aqueous suspension or emulsion at a water application rate equating to 600 to 800 L/ha with addition of 0.2% wetting agent. After the test plants have been left to stand in the greenhouse under optimal growth conditions for about 3 weeks, the action of the preparations is assessed visually in comparison to untreated controls (herbicidal action in percent (%): 100% activity=the plants have died, 0% activity=like control plants).

Alopecurus myosuroides = experiment: Pre-emergence herbicidal effect; settings: Dosage 320 g/ha, scored visually after 3 weeks
Source text: as §1, §2, §3

Amaranthus retroflexus [6] = experiment: Post-emergence herbicidal effect; settings: assessed visually after about 3 weeks vs untreated controls
Source text: as §4

Stellaria media [7] = experiment: Post-emergence herbicidal effect; settings: assessed visually after about 3 weeks vs untreated controls
Source text: as §4

Veronica persica [8] = experiment: Post-emergence herbicidal effect
Source text: as §4

[9] = 320 g/ha, assessed visually after about 3 weeks vs untreated controls
[10] = 80 g/ha, assessed visually after about 3 weeks vs untreated controls
[11] = dosage not printed (first line of Ex. 30)

Row | Compound | POLCO pre-emergence efficacy (herbicidal activity) (Polygonum convolvulus) | AMARE pre-emergence efficacy (herbicidal activity) (Amaranthus retroflexus [1]; Dosage 320 g/ha) | STEME pre-emergence efficacy (herbicidal activity) (Stellaria media [2]; Dosage 320 g/ha) | MATIN pre-emergence efficacy (herbicidal activity) (Matricaria inodora; Dosage 320 g/ha) | VIOTR pre-emergence efficacy (herbicidal activity) (Viola tricolor [3]; Dosage 320 g/ha) | VERPE pre-emergence efficacy (herbicidal activity) (Veronica persica [4]; Dosage 320 g/ha) | VERPE pre-emergence efficacy (herbicidal activity) (Veronica persica [4]; Dosage 80 g/ha) | other results
1 | Cc1cc2c(s1)CCCC2Nc1nc(N)c(S(C)(=O)=O)c(C(C)F)n1 (racemic) [compound 318] | 100% | 100% | 100% | 90% | 100% | 100% | – | SETVI pre-emergence efficacy (herbicidal activity) (Setaria viridis): 100%
2 | CON=C(C)c1cnc(NC2CCCc3sccc32)nc1N (racemic) [compound 310] | – | – | 90% | – | 100% | – | – | –
3 | Cc1cc2c(s1)CCCC2Nc1nc(N)c(-c2cncc(F)c2)c(C(F)F)n1 (racemic) [compound 299] | – | 100% | – | 90% | 100% | – | – | post-emergence efficacy VIOTR (Viola tricolor [5]; [9]): 90%; SETVI pre-emergence efficacy (herbicidal activity) (Setaria viridis): 90%; ALOMY pre-emergence efficacy (herbicidal activity) (Alopecurus myosuroides): 100%
4 | CC(=O)c1cnc(NC2CCCc3sc(Cl)cc32)nc1C (stereo not shown) [compound 303] | 60% | 100% | 100% | 90% | 90% | 100% | 100% | AMARE pre-emergence efficacy (herbicidal activity) (Amaranthus retroflexus [1]; Dosage 80 g/ha): 100%; STEME pre-emergence efficacy (herbicidal activity) (Stellaria media [2]; Dosage 80 g/ha): 100%; MATIN pre-emergence efficacy (herbicidal activity) (Matricaria inodora; Dosage 80 g/ha): 80%; VIOTR pre-emergence efficacy (herbicidal activity) (Viola tricolor [3]; Dosage 80 g/ha): 70%
5 | COc1nc(NC2CCCc3sc(C)cc32)ncc1C(F)(F)F (racemic) [compound 10] | – | 80% | 100% | – | – | 100% | – | –
6 | Cc1cc2c(s1)CCCC2Nc1ncc(-c2cccc(Cl)c2)c(N)n1 (racemic) [compound 297] | – | – | 100% | 100% | 90% | 100% | 100% | STEME pre-emergence efficacy (herbicidal activity) (Stellaria media [2]; Dosage 80 g/ha): 80%; MATIN pre-emergence efficacy (herbicidal activity) (Matricaria inodora; Dosage 80 g/ha): 90%; VIOTR pre-emergence efficacy (herbicidal activity) (Viola tricolor [3]; Dosage 80 g/ha): 70%
7 | Cc1cc2c(s1)CCCC2Nc1ncc(-c2cccc(F)c2)c(N)n1 (racemic) [compound 265] | 60% | – | 100% | 100% | – | 100% | 100% | post-emergence efficacy AMARE (Amaranthus retroflexus [6]; 80 g/ha): 80%; post-emergence efficacy AMARE (Amaranthus retroflexus [6]; 320 g/ha): 80%; post-emergence efficacy STEME (Stellaria media [7]; 80 g/ha): 60%; post-emergence efficacy STEME (Stellaria media [7]; 320 g/ha): 60%; post-emergence efficacy VIOTR (Viola tricolor [5]; [10]): 80%; post-emergence efficacy VIOTR (Viola tricolor [5]; [9]): 80%; post-emergence efficacy VERPE (Veronica persica [8]; [10]): 90%; post-emergence efficacy VERPE (Veronica persica [8]; [9]): 90%
8 | CC(=NOC(C)C)c1cnc(NC2CCCc3sc(C)cc32)nc1N (racemic) [compound 342] | – | – | 100% | 100% | – | 100% | 100% | STEME pre-emergence efficacy (herbicidal activity) (Stellaria media [2]; Dosage 80 g/ha): 100%; ALOMY pre-emergence efficacy (herbicidal activity) (Alopecurus myosuroides): 70%
9 | C/C(=N/O)c1cnc(NC2CCCc3sc(Cl)cc32)nc1C (racemic) [compound 259] | – | – | 100% | – | 80% | 100% | – | SETVI pre-emergence efficacy (herbicidal activity) (Setaria viridis): 100%
10 | Cc1cccc(-c2c(N)nc(NC3CCCc4sc(C)cc43)nc2C(F)F)c1 (racemic) [compound 304] | 60% | – | 100% | – | – | 100% | 100% | –
11 | Cc1cc2c(s1)CCCC2Nc1ncc(C(=O)C(F)(F)Cl)c(N)n1 (racemic) [compound 30] | – | 100% | 100% | 100% | 100% | 100% | 90% | post-emergence efficacy VIOTR (Viola tricolor [5]; [11]): 90%; post-emergence efficacy VIOTR (Viola tricolor [5]; dosage not printed (second line of Ex. 30)): 80%; post-emergence efficacy VERPE (Veronica persica [8]; [11]): 80%; AMARE pre-emergence efficacy (herbicidal activity) (Amaranthus retroflexus [1]; Dosage 80 g/ha): 90%; STEME pre-emergence efficacy (herbicidal activity) (Stellaria media [2]; Dosage 80 g/ha): 90%; SETVI pre-emergence efficacy (herbicidal activity) (Setaria viridis): 90%; MATIN pre-emergence efficacy (herbicidal activity) (Matricaria inodora; Dosage 80 g/ha): 100%; VIOTR pre-emergence efficacy (herbicidal activity) (Viola tricolor [3]; Dosage 80 g/ha): 100%
12 | Cc1cc2c(s1)CCCC2Nc1nc(N)c(-c2cncc(F)c2)c(C(C)F)n1 (racemic) [compound 316] | 70% | 100% | 100% | 80% | 100% | 100% | – | post-emergence efficacy VIOTR (Viola tricolor [5]; [9]): 80%; post-emergence efficacy VERPE (Veronica persica [8]; [9]): 100%
13 | Cc1cc2c(s1)CCC2Nc1ncc(S(=O)(=O)NCc2ccc(F)cc2)c(N)n1 (racemic) [compound 38] | – | 90% | – | 100% | – | 90% | – | post-emergence efficacy AMARE (Amaranthus retroflexus [6]; 320 g/ha): 80%; post-emergence efficacy VERPE (Veronica persica [8]; [9]): 90%
14 | Cc1sc(C)c2c1CCCC2Nc1ncc(C(F)(F)F)c(N)n1 (racemic) [compound 2] | – | – | 100% | 80% | 100% | – | – | –
15 | N=S(=O)(c1ccccc1)c1cnc(NC2CCCc3sccc32)nc1N (racemic) [compound 27] | – | 100% | 100% | 100% | 100% | 100% | – | MATIN pre-emergence efficacy (herbicidal activity) (Matricaria inodora; Dosage 80 g/ha): 90%
